Numbers after ± are expanded uncertainties.
Assays:
[1] = Molar enthalpy of transition or fusion; conditions: Crystal; DSC
[2] = Crystal; for vapor or sublimation pressure: Transpiration method; for Normal melting temperature: DTA

Structure (SMILES) | Molar enthalpy of transition or fusion [1] [kcal/mol] | vapor or sublimation pressure ([2]; 366.15 K) [kPa] | vapor or sublimation pressure ([2]; 372.15 K) [kPa] | vapor or sublimation pressure ([2]; 376.15 K) [kPa] | vapor or sublimation pressure ([2]; 377.15 K) [kPa] | vapor or sublimation pressure ([2]; 380.15 K) [kPa] | vapor or sublimation pressure ([2]; 384.15 K) [kPa] | vapor or sublimation pressure ([2]; 386.15 K) [kPa] | vapor or sublimation pressure ([2]; 387.15 K) [kPa] | vapor or sublimation pressure ([2]; 390.15 K) [kPa] | Normal melting temperature [2] [°C] | vapor or sublimation pressure ([2]; 365.15 K) [kPa] | vapor or sublimation pressure ([2]; 369.15 K) [kPa] | vapor or sublimation pressure ([2]; 385.15 K) [kPa] | vapor or sublimation pressure ([2]; 388.15 K) [kPa] | vapor or sublimation pressure ([2]; 389.15 K) [kPa] | vapor or sublimation pressure ([2]; 391.15 K) [kPa] | vapor or sublimation pressure ([2]; 393.15 K) [kPa] | vapor or sublimation pressure ([2]; 395.15 K) [kPa] | vapor or sublimation pressure ([2]; 397.15 K) [kPa] | further results
CCc1ccc(NC2=NCCC3(CCCCC3)S2)cc1 [N-(4-ethylphenyl)-1-thia-3-azaspiro[5.5]undec-2-en-2-amine] | 10.2 ± 0.311 | 3.45e-05 ± 3.7e-06 | 7.08e-05 ± 7.5e-06 | 0.0001151 ± 1.2e-05 | 0.0001434 ± 1.5e-05 | 0.0001583 ± 1.7e-05 | 0.0002567 ± 2.7e-05 | 0.000327 ± 3.5e-05 | 0.0003632 ± 3.9e-05 | 0.0004631 ± 4.9e-05 | 139.4 ± 0.5 |  |  |  |  |  |  |  |  |  | vapor or sublimation pressure ([2]; 367.15 K): 4.16e-05 ± 4.4e-06 kPa; vapor or sublimation pressure ([2]; 370.15 K): 5.31e-05 ± 5.7e-06 kPa; vapor or sublimation pressure ([2]; 374.15 K): 8.22e-05 ± 8.8e-06 kPa; vapor or sublimation pressure ([2]; 382.15 K): 0.0002134 ± 2.3e-05 kPa; vapor or sublimation pressure ([2]; 392.15 K): 0.000642 ± 6.8e-05 kPa; vapor or sublimation pressure ([2]; 394.15 K): 0.0007981 ± 8.5e-05 kPa
c1ccc(NC2=NCCC3(CCCCC3)S2)cc1 [N-phenyl-1-thia-3-azaspiro[5.5]undec-2-en-2-amine] | 5.16 ± 0.263 |  |  |  |  |  |  |  |  |  | 113.4 ± 0.5 | 0.0001035 ± 1.1e-05 | 0.0001541 ± 1.6e-05 |  |  |  |  |  |  |  | vapor or sublimation pressure ([2]; 342.15 K): 6.9e-06 ± 8e-07 kPa; vapor or sublimation pressure ([2]; 343.15 K): 8.2e-06 ± 9e-07 kPa; vapor or sublimation pressure ([2]; 345.15 K): 1.01e-05 ± 1.1e-06 kPa; vapor or sublimation pressure ([2]; 347.15 K): 1.32e-05 ± 1.4e-06 kPa; vapor or sublimation pressure ([2]; 349.15 K): 1.47e-05 ± 1.6e-06 kPa; vapor or sublimation pressure ([2]; 350.15 K): 1.8e-05 ± 1.9e-06 kPa; vapor or sublimation pressure ([2]; 352.15 K): 2.39e-05 ± 2.6e-06 kPa; vapor or sublimation pressure ([2]; 355.15 K): 3.14e-05 ± 3.4e-06 kPa; vapor or sublimation pressure ([2]; 357.15 K): 4.42e-05 ± 4.7e-06 kPa; vapor or sublimation pressure ([2]; 360.15 K): 6.22e-05 ± 6.6e-06 kPa; vapor or sublimation pressure ([2]; 361.15 K): 6.34e-05 ± 6.8e-06 kPa; vapor or sublimation pressure ([2]; 362.15 K): 9.1e-05 ± 9.7e-06 kPa; vapor or sublimation pressure ([2]; 367.15 K): 0.0001298 ± 1.4e-05 kPa; vapor or sublimation pressure ([2]; 368.15 K): 0.0001351 ± 1.4e-05 kPa
Cc1ccc(NC2=NCCC3(CCCCC3)S2)cc1Cl | 7.93 ± 0.287 |  |  |  |  |  |  | 8.8e-06 ± 1e-06 | 1.13e-05 ± 1.2e-06 |  | 149.2 ± 0.5 |  |  | 7.9e-06 ± 9e-07 | 1.22e-05 ± 1.3e-06 | 1.29e-05 ± 1.4e-06 | 1.59e-05 ± 1.7e-06 | 1.79e-05 ± 1.9e-06 | 2.05e-05 ± 2.2e-06 | 2.95e-05 ± 3.2e-06 | vapor or sublimation pressure ([2]; 396.15 K): 2.29e-05 ± 2.5e-06 kPa; vapor or sublimation pressure ([2]; 399.15 K): 3.31e-05 ± 3.5e-06 kPa; vapor or sublimation pressure ([2]; 401.15 K): 3.4e-05 ± 3.6e-06 kPa; vapor or sublimation pressure ([2]; 402.15 K): 3.75e-05 ± 4e-06 kPa; vapor or sublimation pressure ([2]; 404.15 K): 4.55e-05 ± 4.9e-06 kPa; vapor or sublimation pressure ([2]; 405.7 K): 5.09e-05 ± 5.4e-06 kPa; vapor or sublimation pressure ([2]; 406.4 K): 5.34e-05 ± 5.7e-06 kPa; vapor or sublimation pressure ([2]; 407.3 K): 6.09e-05 ± 6.5e-06 kPa
CC(C)c1ccc(NC2=NCCC3(CCCCC3)S2)cc1 | 6.98 ± 0.287 | 2.34e-05 ± 2.5e-06 |  | 7.14e-05 ± 7.6e-06 |  |  |  | 0.0001933 ± 2.1e-05 |  | 0.0002603 ± 2.8e-05 | 139.6 ± 0.5 | 1.98e-05 ± 2.1e-06 | 3.21e-05 ± 3.4e-06 | 0.0001533 ± 1.6e-05 | 0.0001988 ± 2.1e-05 |  |  | 0.0003364 ± 3.6e-05 |  |  | vapor or sublimation pressure ([2]; 371.15 K): 3.7e-05 ± 4e-06 kPa; vapor or sublimation pressure ([2]; 373.15 K): 4.74e-05 ± 5.1e-06 kPa; vapor or sublimation pressure ([2]; 375.15 K): 5.94e-05 ± 6.3e-06 kPa; vapor or sublimation pressure ([2]; 379.15 K): 8.3e-05 ± 8.8e-06 kPa; vapor or sublimation pressure ([2]; 381.15 K): 0.0001048 ± 1.1e-05 kPa; vapor or sublimation pressure ([2]; 383.15 K): 0.0001249 ± 1.3e-05 kPa
Clc1ccc(NC2=NCCC3(CCCCC3)S2)cc1 [N-(4-chlorophenyl)-1-thia-3-azaspiro[5.5]undec-2-en-2-amine] | 10 ± 0.311 |  | 1.28e-05 ± 1.4e-06 | 2e-05 ± 2.1e-06 | 2.79e-05 ± 3e-06 | 3.58e-05 ± 3.8e-06 | 7.05e-05 ± 7.5e-06 |  | 7.69e-05 ± 8.2e-06 |  | 162.6 ± 0.5 |  |  |  |  | 8.96e-05 ± 9.5e-06 | 0.0001171 ± 1.3e-05 | 0.0001487 ± 1.6e-05 | 0.0001855 ± 2e-05 |  | vapor or sublimation pressure ([2]; 370.15 K): 1.08e-05 ± 1.2e-06 kPa; vapor or sublimation pressure ([2]; 373.15 K): 1.3e-05 ± 1.4e-06 kPa; vapor or sublimation pressure ([2]; 383.15 K): 5.41e-05 ± 5.8e-06 kPa; vapor or sublimation pressure ([2]; 398.15 K): 0.0002176 ± 2.3e-05 kPa; vapor or sublimation pressure ([2]; 400.15 K): 0.0002803 ± 3e-05 kPa; vapor or sublimation pressure ([2]; 403.15 K): 0.0003898 ± 4.1e-05 kPa
Cc1ccc(NC2=NCCC3(CCCCC3)S2)cc1 [N-(4-methylphenyl)-1-thia-3-azaspiro[5.5]undec-2-en-2-amine] | 7.1 ± 0.287 | 4.54e-05 ± 4.8e-06 | 9.76e-05 ± 1e-05 | 0.0001366 ± 1.5e-05 | 0.0001547 ± 1.7e-05 | 0.0002336 ± 2.5e-05 | 0.0003508 ± 3.7e-05 |  |  |  | 128.1 ± 0.5 | 3.66e-05 ± 3.9e-06 | 6.73e-05 ± 7.2e-06 |  |  |  |  |  |  |  | vapor or sublimation pressure ([2]; 353.15 K): 9.4e-06 ± 1e-06 kPa; vapor or sublimation pressure ([2]; 355.15 K): 1.29e-05 ± 1.4e-06 kPa; vapor or sublimation pressure ([2]; 356.15 K): 1.58e-05 ± 1.7e-06 kPa; vapor or sublimation pressure ([2]; 360.15 K): 2.24e-05 ± 2.4e-06 kPa; vapor or sublimation pressure ([2]; 363.15 K): 3.02e-05 ± 3.2e-06 kPa; vapor or sublimation pressure ([2]; 375.15 K): 0.0001314 ± 1.4e-05 kPa; vapor or sublimation pressure ([2]; 378.15 K): 0.0001852 ± 2e-05 kPa
FC(F)(F)c1ccc(NC2=NCCC3(CCCCC3)S2)cc1 | 7.86 ± 0.287 |  |  |  |  |  | 4.95e-05 ± 5.3e-06 | 5.53e-05 ± 5.9e-06 | 6.2e-05 ± 6.6e-06 | 8.5e-05 ± 9e-06 | 149.7 ± 0.5 |  |  | 5.32e-05 ± 5.7e-06 |  | 7.35e-05 ± 7.8e-06 |  | 0.0001076 ± 1.1e-05 | 0.0001376 ± 1.5e-05 | 0.0001497 ± 1.6e-05 | vapor or sublimation pressure ([2]; 392.15 K): 9.41e-05 ± 1e-05 kPa; vapor or sublimation pressure ([2]; 394.15 K): 0.0001185 ± 1.3e-05 kPa; vapor or sublimation pressure ([2]; 398.15 K): 0.0001884 ± 2e-05 kPa; vapor or sublimation pressure ([2]; 399.15 K): 0.0002215 ± 2.3e-05 kPa; vapor or sublimation pressure ([2]; 401.15 K): 0.0002241 ± 2.4e-05 kPa; vapor or sublimation pressure ([2]; 402.15 K): 0.0002762 ± 2.9e-05 kPa; vapor or sublimation pressure ([2]; 403.15 K): 0.0002858 ± 3e-05 kPa
Brc1ccc(NC2=NCCC3(CCCCC3)S2)cc1 [N-(4-bromophenyl)-1-thia-3-azaspiro[5.5]undec-2-en-2-amine] | 10.6 ± 0.311 |  |  |  |  | 1.35e-05 ± 1.5e-06 |  |  |  |  | 175.2 ± 0.5 |  |  | 1.92e-05 ± 2.1e-06 | 3.2e-05 ± 3.4e-06 |  | 4.17e-05 ± 4.5e-06 | 5.5e-05 ± 5.9e-06 | 6.74e-05 ± 7.2e-06 | 7.99e-05 ± 8.5e-06 | vapor or sublimation pressure ([2]; 374.15 K): 5.7e-06 ± 6e-07 kPa; vapor or sublimation pressure ([2]; 375.15 K): 7.6e-06 ± 8e-07 kPa; vapor or sublimation pressure ([2]; 378.15 K): 1.05e-05 ± 1.1e-06 kPa; vapor or sublimation pressure ([2]; 399.15 K): 9.5e-05 ± 1e-05 kPa; vapor or sublimation pressure ([2]; 401.15 K): 0.0001235 ± 1.3e-05 kPa; vapor or sublimation pressure ([2]; 403.15 K): 0.0001454 ± 1.6e-05 kPa; vapor or sublimation pressure ([2]; 405.15 K): 0.0001813 ± 1.9e-05 kPa; vapor or sublimation pressure ([2]; 406.15 K): 0.0002145 ± 2.3e-05 kPa; vapor or sublimation pressure ([2]; 409.15 K): 0.000277 ± 2.9e-05 kPa; vapor or sublimation pressure ([2]; 411.15 K): 0.0003482 ± 3.7e-05 kPa

From the NIST ThermoML archive (doi:10.1021/je300610y)
